{"source": "patent US20260285850A1", "about": "“SUBSTITUTED OXAZOLIDINONES AND IMIDAZOLINONES AS HERBICIDES” (FMC CORPORATION, priority 2023, published 2026)", "type_in_all_cases": "in vivo", "key": {"[1]": {"test_system": "barnyardgrass (Echinochloa crus-galli)", "test": "Test A preemergence soil spray, visual injury rating 0-100", "settings": "10 days", "procedure,_shortened": "(§1)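 Plants in a loam and sand soil blend were treated with each test chemical, in a non-phytotoxic solvent system including surfactant, either sprayed on seeded soil before emergence or applied after emergence at the one- to two-leaf stage. Ten days later in the greenhouse, plants were compared with untreated controls and visually rated from 0 (no effect) to 100 (complete control).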"}, "[2]": {"test_system": "blackgrass (Alopecurus myosuroides)", "test": "Test A preemergence soil spray, visual injury rating 0-100", "settings": "10 days", "procedure,_shortened": "as §1"}, "corn (Zea mays) [3]": {"test_system": "corn (Zea mays)", "test": "Test A preemergence soil spray, visual injury rating 0-100", "settings": "10 days", "procedure,_shortened": "as §1"}, "[4]": {"test_system": "green foxtail (Setaria viridis)", "test": "Test A preemergence soil spray, visual injury rating 0-100", "settings": "10 days", "procedure,_shortened": "as §1"}, "kochia (Bassia scoparia) [5]": {"test_system": "kochia (Bassia scoparia)", "test": "Test A preemergence soil spray, visual injury rating 0-100", "settings": "10 days", "procedure,_shortened": "as §1"}, "[6]": {"test_system": "oat, wild (wild oat, Avena fatua)", "test": "Test A preemergence soil spray, visual injury rating 0-100", "settings": "10 days", "procedure,_shortened": "as §1"}, "[7]": {"test_system": "palmer (palmer amaranth, palmer pigweed, Amaranthus palmeri)", "test": "Test A preemergence soil spray, visual injury rating 0-100", "settings": "10 days", "procedure,_shortened": "as §1"}, "[8]": {"test_system": "ragweed (common ragweed, Ambrosia artemisiifolia)", "test": "Test A preemergence soil spray, visual injury rating 0-100", "settings": "10 days", "procedure,_shortened": "as §1"}, "[9]": {"test_system": "ryegrass, Italian (italian ryegrass, Lolium multiflorum)", "test": "Test A preemergence soil spray, visual injury rating 0-100", "settings": "10 days", "procedure,_shortened": "as §1"}, "soybean (Glycine max) [10]": {"test_system": "soybean (Glycine max)", "test": "Test A preemergence soil spray, visual injury rating 0-100", "settings": "10 days", "procedure,_shortened": "as §1"}, "[11]": {"test_system": "wheat (Triticum aestivum)", "test": "Test A preemergence soil spray, visual injury rating 0-100", "settings": "10 days", "procedure,_shortened": "as §1"}, "[12]": {"test_system": "barnyardgrass (Echinochloa crus-galli)", "test": "Test A postemergence application, visual injury rating 0-100", "procedure,_shortened": "as §1"}, "[13]": {"test_system": "blackgrass (Alopecurus myosuroides)", "test": "Test A postemergence application, visual injury rating 0-100", "procedure,_shortened": "as §1"}, "corn (Zea mays) [14]": {"test_system": "corn (Zea mays)", "test": "Test A postemergence application, visual injury rating 0-100", "procedure,_shortened": "as §1"}, "[15]": {"test_system": "galium (catchweed bedstraw, Galium aparine)", "test": "Test A postemergence application, visual injury rating 0-100", "procedure,_shortened": "as §1"}, "[16]": {"test_system": "green foxtail (Setaria viridis)", "test": "Test A postemergence application, visual injury rating 0-100", "procedure,_shortened": "as §1"}, "kochia (Bassia scoparia) [17]": {"test_system": "kochia (Bassia scoparia)", "test": "Test A postemergence application, visual injury rating 0-100", "procedure,_shortened": "as §1"}, "[18]": {"test_system": "oat, wild (wild oat, Avena fatua)", "test": "Test A postemergence application, visual injury rating 0-100", "procedure,_shortened": "as §1"}, "[19]": {"test_system": "palmer (palmer amaranth, palmer pigweed, Amaranthus palmeri)", "test": "Test A postemergence application, visual injury rating 0-100", "procedure,_shortened": "as §1"}, "[20]": {"test_system": "ragweed (common ragweed, Ambrosia artemisiifolia)", "test": "Test A postemergence application, visual injury rating 0-100", "procedure,_shortened": "as §1"}, "[21]": {"test_system": "ryegrass, Italian (italian ryegrass, Lolium multiflorum)", "test": "Test A postemergence application, visual injury rating 0-100", "procedure,_shortened": "as §1"}, "soybean (Glycine max) [22]": {"test_system": "soybean (Glycine max)", "test": "Test A postemergence application, visual injury rating 0-100", "procedure,_shortened": "as §1"}, "[23]": {"test_system": "wheat (Triticum aestivum)", "test": "Test A postemergence application, visual injury rating 0-100", "procedure,_shortened": "as §1"}, "[24]": {"test_system": "barnyardgrass (Echinochloa crusgalli)", "test": "Test B flooded paddy test, visual plant response rating 0-100", "settings": "250 g ai/ha, Flood, applied to paddy water, evaluated after 13 days", "procedure,_shortened": "(§2)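 In this flooded assay, 2-leaf seedlings received compound through the water layer, kept at 3 cm over the soil. Plants were held 13 days in a greenhouse and then visually compared with control pots.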"}, "[25]": {"test_system": "ducksalad (Heteranthera limosa)", "test": "Test B flooded paddy test, visual plant response rating 0-100", "settings": "250 g ai/ha, Flood, applied to paddy water, evaluated after 13 days", "procedure,_shortened": "as §2"}, "rice (Oryza sativa)": {"test_system": "rice (Oryza sativa)", "test": "Test B flooded paddy test, visual plant response rating 0-100", "settings": "250 g ai/ha, Flood, applied to paddy water, evaluated after 13 days", "procedure,_shortened": "as §2"}, "[26]": {"test_system": "sedge, umbrella (small-flower umbrella sedge, Cyperus difformis)", "test": "Test B flooded paddy test, visual plant response rating 0-100", "settings": "250 g ai/ha, Flood, applied to paddy water, evaluated after 13 days", "procedure,_shortened": "as §2"}, "[27]": {"settings": "62 g ai/ha, 0 = no effect, 100 = complete control"}, "[28]": {"settings": "62 g ai/ha, postemergence, 10 days, 0 = no effect, 100 = complete control"}, "[29]": {"settings": "Postemergence, 16 g ai/ha, greenhouse 10 days, 0 no effect, 100 complete control"}}, "data": [{"smiles": "COC(=O)C1=CCC(NC(=O)C2(C)CN(c3cc(F)c(F)c(F)c3)C(=O)O2)C1", "note": "(mixture of isomers) [Compound 163]", "values": [{"measurement": "Barnyardgrass plant response rating", "setting": "[1]; 16 g ai/ha, 0 to 100 scale", "value": 0}, {"measurement": "Barnyardgrass plant response rating (0-100)", "setting": "[1]; [27]", "value": 20}, {"measurement": "Blackgrass plant response rating", "setting": "[2]; 16 g ai/ha, 0 to 100 scale", "value": 0}, {"measurement": "Blackgrass plant response rating (0-100)", "setting": "[2]; [27]", "value": 0}, {"measurement": "Corn plant response rating", "setting": "corn (Zea mays) [3]; 16 g ai/ha, 0 to 100 scale", "value": 0}, {"measurement": "Corn plant response rating (0-100)", "setting": "corn (Zea mays) [3]; [27]", "value": 70}, {"measurement": "Foxtail, Green plant response rating", "setting": "[4]; 16 g ai/ha, 0 to 100 scale", "value": 0}, {"measurement": "Foxtail, Green plant response rating (0-100)", "setting": "[4]; [27]", "value": 20}, {"measurement": "Kochia plant response rating", "setting": "kochia (Bassia scoparia) [5]; 16 g ai/ha, 0 to 100 scale", "value": 0}, {"measurement": "Kochia plant response rating (0-100)", "setting": "kochia (Bassia scoparia) [5]; [27]", "value": 0}, {"measurement": "Oat, Wild plant response rating", "setting": "[6]; 16 g ai/ha, 0 to 100 scale", "value": 0}, {"measurement": "Oat, Wild plant response rating (0-100)", "setting": "[6]; [27]", "value": 20}, {"measurement": "Pigweed, Palmer plant response rating", "setting": "[7]; 16 g ai/ha, 0 to 100 scale", "value": 0}, {"measurement": "Pigweed, Palmer plant response rating (0-100)", "setting": "[7]; [27]", "value": 0}, {"measurement": "Ragweed plant response rating", "setting": "[8]; 16 g ai/ha, 0 to 100 scale", "value": 0}, {"measurement": "Ragweed plant response rating (0-100)", "setting": "[8]; [27]", "value": 10}, {"measurement": "Ryegrass, Italian plant response rating", "setting": "[9]; 16 g ai/ha, 0 to 100 scale", "value": 0}, {"measurement": "Ryegrass, Italian plant response rating (0-100)", "setting": "[9]; [27]", "value": 80}, {"measurement": "Soybean plant response rating", "setting": "soybean (Glycine max) [10]; 16 g ai/ha, 0 to 100 scale", "value": 0}, {"measurement": "Soybean plant response rating (0-100)", "setting": "soybean (Glycine max) [10]; [27]", "value": 0}, {"measurement": "Wheat plant response rating", "setting": "[11]; 16 g ai/ha, 0 to 100 scale", "value": 20}, {"measurement": "Wheat plant response rating (0-100)", "setting": "[11]; [27]", "value": 80}, {"measurement": "Barnyardgrass plant response rating (0-100)", "setting": "[12]; [28]", "value": 100}, {"measurement": "Barnyardgrass plant response rating (0 to 100 scale)", "setting": "[12]; [29]", "value": 70}, {"measurement": "Blackgrass plant response rating (0-100)", "setting": "[13]; [28]", "value": 70}, {"measurement": "Blackgrass plant response rating (0 to 100 scale)", "setting": "[13]; [29]", "value": 20}, {"measurement": "Corn plant response rating (0-100)", "setting": "corn (Zea mays) [14]; [28]", "value": 100}, {"measurement": "Corn plant response rating (0 to 100 scale)", "setting": "corn (Zea mays) [14]; [29]", "value": 90}, {"measurement": "Galium plant response rating (0-100)", "setting": "[15]; [28]", "value": 70}, {"measurement": "Galium plant response rating (0 to 100 scale)", "setting": "[15]; [29]", "value": 40}, {"measurement": "Foxtail, Green plant response rating (0-100)", "setting": "[16]; [28]", "value": 90}, {"measurement": "Foxtail, Green plant response rating (0 to 100 scale)", "setting": "[16]; [29]", "value": 50}, {"measurement": "Kochia plant response rating (0-100)", "setting": "kochia (Bassia scoparia) [17]; [28]", "value": 90}, {"measurement": "Kochia plant response rating (0 to 100 scale)", "setting": "kochia (Bassia scoparia) [17]; [29]", "value": 20}, {"measurement": "Oat, Wild plant response rating (0-100)", "setting": "[18]; [28]", "value": 90}, {"measurement": "Oat, Wild plant response rating (0 to 100 scale)", "setting": "[18]; [29]", "value": 30}, {"measurement": "Pigweed, Palmer plant response rating (0-100)", "setting": "[19]; [28]", "value": 80}, {"measurement": "Pigweed, Palmer plant response rating (0 to 100 scale)", "setting": "[19]; [29]", "value": 10}, {"measurement": "Ragweed plant response rating (0-100)", "setting": "[20]; [28]", "value": 0}, {"measurement": "Ragweed plant response rating (0 to 100 scale)", "setting": "[20]; [29]", "value": 0}, {"measurement": "Ryegrass, Italian plant response rating (0-100)", "setting": "[21]; [28]", "value": 80}, {"measurement": "Ryegrass, Italian plant response rating (0 to 100 scale)", "setting": "[21]; [29]", "value": 60}, {"measurement": "Soybean plant response rating (0-100)", "setting": "soybean (Glycine max) [22]; [28]", "value": 70}, {"measurement": "Soybean plant response rating (0 to 100 scale)", "setting": "soybean (Glycine max) [22]; [29]", "value": 50}, {"measurement": "Wheat plant response rating (0-100)", "setting": "[23]; [28]", "value": 70}, {"measurement": "Wheat plant response rating (0 to 100 scale)", "setting": "[23]; [29]", "value": 30}, {"measurement": "Plant response rating, Barnyardgrass (0 to 100 scale, 0 is no effect and 100 is complete control)", "setting": "[24]", "value": 55}, {"measurement": "Plant response rating, Ducksalad (0 to 100 scale, 0 is no effect and 100 is complete control)", "setting": "[25]", "value": 85}, {"measurement": "Plant response rating, Rice (0 to 100 scale, 0 is no effect and 100 is complete control)", "setting": "rice (Oryza sativa)", "value": 60}, {"measurement": "Plant response rating, Sedge, Umbrella (0 to 100 scale, 0 is no effect and 100 is complete control)", "setting": "[26]", "value": 85}]}]}
